Data as given in ChEMBL document CHEMBL5532665 (J Med Chem, 2024).
The source made the active and inactive calls. The rule behind the calls is not given here.

Experiments:
[1] = target: T1, Delta-type opioid receptor (Homo sapiens, UniProt P41143); experiment: Agonist activity at human DOR expressed in CHO-K1 cells co-expressing G-alpha15 by calcium mobilization assay; assay type: functional, cell-based
[2] = Stability in mouse plasma assessed as half life at 0.01 mol/L measured for 72 hrs by RP-HPLC analysis; assay type: ADME, cell-free
Mu-type opioid receptor [3] = target: T2, Mu-type opioid receptor (Homo sapiens, UniProt P35372); experiment: Agonist activity at human MOR expressed in CHO-K1 cells co-expressing G-alpha15 by calcium mobilization assay; assay type: functional, cell-based
T2 sequence (P35372 whole entry): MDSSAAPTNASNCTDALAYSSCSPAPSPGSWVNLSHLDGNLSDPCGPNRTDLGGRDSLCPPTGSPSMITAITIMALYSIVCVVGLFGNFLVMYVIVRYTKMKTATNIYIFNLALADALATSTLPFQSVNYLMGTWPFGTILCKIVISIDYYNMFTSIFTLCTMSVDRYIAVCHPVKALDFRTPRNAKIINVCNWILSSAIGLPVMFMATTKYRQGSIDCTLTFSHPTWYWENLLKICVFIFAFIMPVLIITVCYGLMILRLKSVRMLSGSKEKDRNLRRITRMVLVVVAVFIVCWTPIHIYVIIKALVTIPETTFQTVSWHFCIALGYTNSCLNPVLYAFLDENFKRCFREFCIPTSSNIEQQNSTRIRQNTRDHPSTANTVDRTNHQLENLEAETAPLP

[4] = target: T3, Kappa-type opioid receptor (Homo sapiens, UniProt P41145); experiment: Agonist activity at human KOR expressed in CHO-K1 cells co-expressing G-alpha15 by calcium mobilization assay; assay type: functional, cell-based
T3 sequence (P41145 whole entry): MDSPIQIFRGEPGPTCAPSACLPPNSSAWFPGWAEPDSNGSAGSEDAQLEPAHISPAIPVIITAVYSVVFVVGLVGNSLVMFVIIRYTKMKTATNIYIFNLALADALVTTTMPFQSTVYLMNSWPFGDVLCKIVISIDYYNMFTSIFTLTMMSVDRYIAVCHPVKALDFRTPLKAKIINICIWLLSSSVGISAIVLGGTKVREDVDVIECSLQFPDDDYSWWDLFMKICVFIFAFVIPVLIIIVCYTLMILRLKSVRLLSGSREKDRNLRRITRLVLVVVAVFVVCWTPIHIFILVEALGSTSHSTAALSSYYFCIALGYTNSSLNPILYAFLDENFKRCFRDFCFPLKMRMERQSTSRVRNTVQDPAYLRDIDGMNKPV

[5] = target: T1, Delta-type opioid receptor; experiment: Agonist activity at human DOR expressed in CHO-K1 cells co-expressing G-alpha15 by calcium mobilization assay relative to control; assay type: functional, cell-based; conditions: filed as agonist
Mu-type opioid receptor [6] = target: T2, Mu-type opioid receptor; experiment: Agonist activity at human MOR expressed in CHO-K1 cells co-expressing G-alpha15 by calcium mobilization assay relative to control; assay type: functional, cell-based; conditions: filed as agonist
[7] = target: T3, Kappa-type opioid receptor; experiment: Agonist activity at human KOR expressed in CHO-K1 cells co-expressing G-alpha15 by calcium mobilization assay relative to control; assay type: functional, cell-based; conditions: filed as agonist
[8] = target: T3, Kappa-type opioid receptor; experiment: Agonist activity at human KOR expressed in CHO-K1 cells co-expressing G-alpha15 upto 100 uM by calcium mobilization assay; assay type: functional, cell-based
Mus musculus [9] = experiment: Antinociceptive activity in Kunming mouse model assessed as latency of tail withdrawal at 138.8 nmol/kg, sc measured for 120 mins by tail-flick test relative to control; assay type: functional; conditions: 2 h
Mus musculus [10] = experiment: Antinociceptive activity in Kunming mouse model assessed as latency of tail withdrawal at 138.8 nmol/kg, sc measured for 30 mins by tail-flick test relative to control; assay type: functional; conditions: 0.5 h
Mus musculus [11] = experiment: Antinociceptive activity in Kunming mouse model assessed as latency of tail withdrawal at 138.8 nmol/kg, sc measured for 60 mins by tail-flick test relative to control; assay type: functional; conditions: 1 h
Mus musculus [12] = experiment: Antinociceptive activity in Kunming mouse model assessed as latency of tail withdrawal at 138.8 nmol/kg, sc measured for 10 mins by tail-flick test relative to control; assay type: functional

T1 sequence (P41143 whole entry): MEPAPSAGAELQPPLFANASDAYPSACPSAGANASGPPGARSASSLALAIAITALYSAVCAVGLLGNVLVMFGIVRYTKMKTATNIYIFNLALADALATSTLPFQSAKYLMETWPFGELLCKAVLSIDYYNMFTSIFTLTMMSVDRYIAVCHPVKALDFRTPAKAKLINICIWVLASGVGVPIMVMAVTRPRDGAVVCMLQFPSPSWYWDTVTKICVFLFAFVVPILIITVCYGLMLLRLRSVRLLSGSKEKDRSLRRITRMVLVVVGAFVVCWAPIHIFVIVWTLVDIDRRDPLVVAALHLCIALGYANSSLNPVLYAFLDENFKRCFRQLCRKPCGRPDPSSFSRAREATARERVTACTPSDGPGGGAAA

Structure (SMILES)	EC50 ([1]; cho-k1)	EC50 (Mu-type opioid receptor [3]; cho-k1)	Emax [5]	Emax (Mu-type opioid receptor [6])	also measured
NC(=O)[C@H]1CCCN1C(=O)[C@@H]1CC(=O)NCCCC[C@@H](NC(=O)[C@@H](N)Cc2ccc(O)cc2)C(=O)NCC(=O)N[C@@H](Cc2ccc3ccccc3c2)C(=O)N1	0.0022 µM	0.0018 µM			half-life at 0.01 mol/L [2]: 20.3 h
NC(=O)[C@H]1CCCN1C(=O)[C@@H]1CC(=O)NCCCC[C@@H](NC(=O)[C@@H](N)Cc2ccc(O)cc2)C(=O)NCC(=O)N[C@@H](Cc2ccccc2)C(=O)N1					EC50 [1]: 0.0021 µM; half-life at 0.01 mol/L [2]: 41.9 h; EC50 (Mu-type opioid receptor [3]): 0.0311 µM; EC50 [4]: 2.83 µM
CN1CC(=O)N[C@@H](Cc2ccccc2)C(=O)N[C@@H](C(=O)N2CCC[C@H]2C(N)=O)CC(=O)NCCCC[C@@H](NC(=O)[C@@H](N)Cc2ccc(O)cc2)C1=O			100%	118%	
Cc1ccc(C[C@@H]2NC(=O)CNC(=O)[C@H](NC(=O)[C@@H](N)Cc3ccc(O)cc3)CCCCNC(=O)C[C@H](C(=O)N3CCC[C@H]3C(N)=O)NC2=O)cc1			115%	109%	Emax [7]: 66.7%
NC(=O)[C@@H]1CCCN1C(=O)[C@H]1CC(=O)NCCCC[C@@H](NC(=O)[C@@H](N)Cc2ccc(O)cc2)C(=O)NCC(=O)N[C@@H](CCc2ccccc2)C(=O)N1			66.6%	99.8%	Activity [8]: inactive
NC(=O)[C@H]1CC(=O)NCCCC[C@@H](NC(=O)[C@@H](N)Cc2ccc(O)cc2)C(=O)NCC(=O)N[C@@H](Cc2ccccc2)C(=O)N1			125%	103%	Emax [7]: 85.5%
NC(=O)[C@H]1CCCN1C(=O)[C@@H]1CC(=O)NCCCC[C@@H](NC(=O)[C@@H](N)Cc2ccc(O)cc2)C(=O)NCC(=O)N[C@@H](CC2CCCCC2)C(=O)N1	0.804 µM	0.0432 µM			
NC(=O)[C@@H]1CCCN1C(=O)[C@H]1CC(=O)NCCCC[C@@H](NC(=O)[C@@H](N)Cc2ccc(O)cc2)C(=O)NCCC(=O)N[C@@H](Cc2ccccc2)C(=O)N1				95.9%	
Cc1cc(O)cc(C)c1C[C@H](N)C(=O)N[C@@H]1CCCCNC(=O)C[C@@H](C(=O)N2CCC[C@@H]2C(N)=O)NC(=O)[C@H](Cc2ccccc2)NC(=O)CNC1=O	0.0012 µM	0.0073 µM			EC50 ([4]; cho-k1): 3.55 µM
NC(=O)[C@H]1CCCN1C(=O)[C@@H]1CC(=O)NCCCC[C@@H](NC(=O)[C@@H](N)Cc2ccc(O)cc2)C(=O)NCC(=O)N(Cc2ccccc2)CC(=O)N1	0.837 µM	0.0361 µM			
Cc1ccc(C[C@@H]2NC(=O)CNC(=O)[C@H](NC(=O)[C@@H](N)Cc3ccc(O)cc3)CCCCNC(=O)C[C@@H](C(=O)N3CCC[C@@H]3C(N)=O)NC2=O)cc1 [listing 1 of 2 here]					MPE (Mus musculus [9]): 39.2%; MPE (Mus musculus [10]): 95.6%; MPE (Mus musculus [11]): 67.1%; MPE (Mus musculus [12]): 44.8%
CC1(C)NC(=O)[C@H](NC(=O)[C@@H](N)Cc2ccc(O)cc2)CCCCNC(=O)C[C@@H](C(=O)N2CCC[C@@H]2C(N)=O)NC(=O)[C@H](Cc2ccccc2)NC1=O	0.0491 µM	0.0053 µM			half-life at 0.01 mol/L [2]: > 72 h; EC50 ([4]; cho-k1): 7.25 µM
Cc1ccc(C[C@@H]2NC(=O)CNC(=O)[C@H](NC(=O)[C@@H](N)Cc3ccc(O)cc3)CCCCNC(=O)C[C@@H](C(=O)N3CCC[C@@H]3C(N)=O)NC2=O)cc1 [listing 2 of 2 here]	0.0222 µM	0.0291 µM			EC50 ([4]; cho-k1): 2.43 µM
NC(=O)[C@@H]1CCCN1C(=O)[C@H]1CC(=O)NCCCC[C@@H](NC(=O)[C@@H](N)Cc2ccc(O)cc2)C(=O)NCC(=O)N(Cc2ccccc2)CC(=O)N1			88.9%	113%	Activity [8]: inactive
NC(=O)[C@H]1CCCN1C(=O)[C@@H]1CC(=O)NCCCC[C@@H](NC(=O)[C@@H](N)Cc2ccc(O)cc2)C(=O)NCC(=O)N[C@@H](CCc2ccccc2)C(=O)N1	0.0644 µM	0.184 µM			
